The source of these data is paper PMC6271590, “Phenoxyacetohydrazide Schiff Bases: β-Glucuronidase Inhibitors” (Molecules, 2014).

The target in the test is T1, β-Glucuronidase (E.C. 3.2.1.31 from bovine liver) (Bos taurus, UniProt A3KMY8).
T1 construct: β-Glucuronidase (E.C. 3.2.1.31 from bovine liver, G-0251); purchased Sigma Chemical Co. (St. Louis, MO, USA) G-0251; host or cells: bovine liver (tissue-derived preparation)
T1 sequence (A3KMY8 1-652): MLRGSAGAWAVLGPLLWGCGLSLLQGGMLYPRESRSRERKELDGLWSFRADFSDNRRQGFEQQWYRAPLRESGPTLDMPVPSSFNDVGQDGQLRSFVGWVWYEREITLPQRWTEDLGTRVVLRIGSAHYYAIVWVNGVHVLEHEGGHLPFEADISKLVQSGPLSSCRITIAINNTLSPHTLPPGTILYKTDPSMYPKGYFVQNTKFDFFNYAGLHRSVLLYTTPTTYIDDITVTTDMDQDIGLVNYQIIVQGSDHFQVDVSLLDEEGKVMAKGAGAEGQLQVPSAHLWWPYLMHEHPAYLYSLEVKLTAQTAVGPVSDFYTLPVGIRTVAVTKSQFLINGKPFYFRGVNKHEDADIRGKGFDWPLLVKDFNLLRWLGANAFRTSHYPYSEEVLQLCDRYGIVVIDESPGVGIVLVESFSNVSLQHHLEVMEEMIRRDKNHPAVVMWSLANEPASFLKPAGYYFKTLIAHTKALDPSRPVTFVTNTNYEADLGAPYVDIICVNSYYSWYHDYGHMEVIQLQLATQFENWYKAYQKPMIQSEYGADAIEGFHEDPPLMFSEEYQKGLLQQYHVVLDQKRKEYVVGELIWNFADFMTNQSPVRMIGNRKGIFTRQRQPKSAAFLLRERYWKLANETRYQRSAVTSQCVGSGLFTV
The test is described as follows: In vitro β-glucuronidase inhibition assay (p-nitrophenyl-β-D-glucuronide, absorbance at 405 nm). The test is classed as biochemical. The settings on record: for IC50: bovine liver enzyme, substrate p-nitrophenyl-β-D-glucuronide, 37 °C, 30 min, triplicate, ± SEM, NA = Not active; for β-glucuronidase inhibitory activity in words: qualitative statement. The protocol:
Synthetic acyl hydrazides Schiff bases 1–28 were screened for their in vitro potential as β-glucoronidase inhibitors. The in vitro β-glucornidase inhibitory potential was evaluated by using the literature protocol.
β-Glucuronidase (E.C. 3.2.1.31 from bovine liver, G-0251) and p-nitrophenyl-β-D-glucuronide (N-1627) were purchased From Sigma Chemical Co. (St. Louis, MO, USA). Anhydrous Na2CO3 and all other reagents of standard grade were obtained from E. Merck. The anhydrous EtOH and CHCl3 used in the experiments were dried employing the standard methods. All other solvents and reagents like the benzoyl chloride were of standard grade.
β-D-Glucuronidase inhibition was determined by measuring the absorbance of the p-nitrophenol which is produce from the substrate at 405 nm. The total reaction volume was 250 µL. The reaction mixture contains 5 µL of test compound solution, 185 µL of 0.1 M acetate buffer, and 10 µL of enzyme, and it was incubated at 37 °C for 30 min. The plates were read on a multiplate reader at 405 nm after the addition of 50 µL of 0.4 mM p-nitrophenyl-β-D-glucuronide. All assays were performed in triplicate.

Values joined by “and” are separate entries in the source; they are usually repeats but may differ in a detail not shown here. Equal entries are not always repeated.

The IC50 is the concentration at which inhibition is half-maximal. For the molecule `COc1ccccc1C=CC=NNC(=O)COc1ccc(Cl)cc1C` [Compound 1], inhibition was half-maximal at 9.2 ± 0.32 µM (IC50) and the “β-glucuronidase inhibitory activity in words” value is “excellent activity”. The “activity relative to the standard D-saccharic acid-1,4-lactone” value (fold better than standard by IC50) was “fivefold better than the standard”. As for `COc1ccc(C=CC=NNC(=O)COc2ccc(Cl)cc2C)cc1` [Compound 2], the “β-glucuronidase inhibitory activity in words” value is “inactive”. `Cc1cc(Cl)ccc1OCC(=O)NN=Cc1ccccc1[N+](=O)[O-]` [Compound 5, 2-(4-Chloro-2-methylphenoxy)-N'-[(2-nitrophenyl)methylidene]acetohydrazide]: the IC50 came to 9.47 ± 0.16 µM and the “β-glucuronidase inhibitory activity in words” value was “excellent activity”. As for `Cc1cc(Cl)ccc1OCC(=O)NN=Cc1cccc([N+](=O)[O-])c1` [Compound 6, 2-(4-Chloro-2-methylphenoxy)-N'-[(3-nitrophenyl)methylidene]acetohydrazide], the “β-glucuronidase inhibitory activity in words” value is “inactivity”. With `Cc1cc(Cl)ccc1OCC(=O)NN=Cc1ccc(Cl)cc1` [Compound 7, 2-(4-Chloro-2-methylphenoxy)-N'-[-(4-chlorophenyl)methylidene]acetohydrazide], the midpoint of inhibition, the IC50, lay at 14.7 ± 0.19 µM and the “β-glucuronidase inhibitory activity in words” value was “excellent activity”. `Cc1cc(Cl)ccc1OCC(=O)NN=Cc1ccc(Cl)c(Cl)c1` [Compound 9, 2-(4-Chloro-2-methylphenoxy)-N'-[(3,4-dichlorophenyl)methylidene]acetohydrazide]: the “β-glucuronidase inhibitory activity in words” value was “completely inactive”. On to `Cc1cc(Cl)ccc1OCC(=O)NN=Cc1c(Cl)cccc1Cl` [Compound 10, 2-(4-Chloro-2-methylphenoxy)-N'-[(2,6-dichlorophenyl)methylidene]acetohydrazide], for which the “β-glucuronidase inhibitory activity in words” value is “completely inactive”.

Turning to `Cc1cc(Cl)ccc1OCC(=O)NN=Cc1ccccc1F` [Compound 11, 2-(4-Chloro-2-methylphenoxy)-N'-[-(2-fluorophenyl)methylidene]acetohydrazide], the IC50 is 19 µM and 19.6 µM; the “β-glucuronidase inhibitory activity in words” value is “excellent activity”.

With `Cc1cc(Cl)ccc1OCC(=O)NN=Cc1ccsc1` [Compound 12, 2-(4-Chloro-2-methylphenoxy)-N'-[3-thienylmethylidene]acetohydrazide], the IC50 stood at 30.7 ± 1.49 µM and the “β-glucuronidase inhibitory activity in words” value is on record as “excellent activity”. Regarding `Cc1cc(Cl)ccc1OCC(=O)NN=Cc1ccco1` [Compound 13, 2-(4-Chloro-2-methylphenoxy)-N'-[-2-furylmethylidene]acetohydrazide], the “β-glucuronidase inhibitory activity in words” value is “completely inactive”. The same measure, in the same setting: the same measure for `Cc1ccc(C=NNC(=O)COc2ccc(Cl)cc2C)o1` [Compound 14, 2-(4-Chloro-2-methylphenoxy)-N'-[-(5-methyl-2-furyl)methylidene]acetohydrazide]: “completely inactive”. For `Cc1cc(Cl)ccc1OCC(=O)NN=Cc1cccc(O)c1O` [Compound 15, 2-(4-Chloro-2-methylphenoxy)-N'-[-(2,3-dihydroxyphenyl)methylidene]acetohydrazide], the IC50 was 12 ± 0.16 µM and the “β-glucuronidase inhibitory activity in words” value was “excellent activity”. On to `Cc1cc(Cl)ccc1OCC(=O)NN=Cc1ccc(O)c(O)c1` [Compound 16, 2-(4-Chloro-2-methylphenoxy)-N'-[-(3,4-dihydroxyphenyl)methylidene]acetohydrazide], for which the “β-glucuronidase inhibitory activity in words” value is “completely inactive”. On the same count and under the same terms, the same measure for `CC(=NNC(=O)COc1ccc(Cl)cc1C)c1ccc(O)cc1` [Compound 17, 2-(4-Chloro-2-methylphenoxy)-N'-[1-(4-hydroxyphenyl)ethylidene]acetohydrazide]: “completely inactive”. On the same count and under the same terms, the same measure for `Cc1cc(Cl)ccc1OCC(=O)NN=Cc1cccc(O)c1` [Compound 18, 2-(4-Chloro-2-methylphenoxy)-N'-[(3-hydroxyphenyl)methylidene]acetohydrazide]: “completely inactive”; for `CC(=NNC(=O)COc1ccc(Cl)cc1C)c1c(O)cc(O)cc1O` [Compound 19, 2-(4-Chloro-2-methylphenoxy)-N'-[1-(2,4,6-trihydroxyphenyl)ethylidene]acetohydrazide]: “completely inactive”.

Consider `Cc1cc(Cl)ccc1OCC(=O)NN=Cc1ccc(O)cc1` [Compound 20, 2-(4-Chloro-2-methylphenoxy)-N'-[(4-hydroxyphenyl)methylidene]acetohydrazide], for which the “β-glucuronidase inhibitory activity in words” value was “completely inactive”. On to `Cc1cc(Cl)ccc1OCC(=O)NN=Cc1cccc2ccccc12` [Compound 21, 2-(4-Chloro-2-methylphenoxy)-N'-[-1-naphthylmethylidene]acetohydrazide], for which 13.7 ± 0.4 µM corresponded to half-maximal inhibition (IC50) and the “β-glucuronidase inhibitory activity in words” value is “excellent activity”. For `Cc1cc(Cl)ccc1OCC(=O)NN=Cc1ccc2ccccc2c1` [Compound 22, 2-(4-Chloro-2-methylphenoxy)-N'-[-2-naphthylmethylidene]acetohydrazide], in that order: 22 ± 0.14 µM and “excellent activity”.
